By melting point is commonly meant the temperature of the solid-liquid transition. For orientation: solubility means the dissolved amount per volume that the medium holds.

One data set has as its target T1, human MT2 receptors (Homo sapiens, UniProt P49286).
T1 sequence (P49286 1-362): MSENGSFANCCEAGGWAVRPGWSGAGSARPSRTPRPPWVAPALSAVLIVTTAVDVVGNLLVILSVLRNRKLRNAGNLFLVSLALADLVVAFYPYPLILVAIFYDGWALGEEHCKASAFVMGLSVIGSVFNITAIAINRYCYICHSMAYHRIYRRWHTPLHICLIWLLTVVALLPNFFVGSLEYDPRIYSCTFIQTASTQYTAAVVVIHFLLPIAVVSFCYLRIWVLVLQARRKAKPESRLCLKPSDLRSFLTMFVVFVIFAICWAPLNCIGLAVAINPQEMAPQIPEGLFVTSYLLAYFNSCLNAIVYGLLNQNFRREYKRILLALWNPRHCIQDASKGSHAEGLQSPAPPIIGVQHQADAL
As to the kind of experiment: Radioligand binding, 2-[125I]iodomelatonin competition at MT2. Particulars: cloned human MT2 in CHO cells; from IC50 by Cheng-Prusoff; mean±SD of three determinations; read-out: MT2 K i.

Data set [1] is described as follows: Metabolic stability in rat liver microsomes. It counts as in vitro ADME. Particulars: rat liver microsomes 1 mg protein/mL, 5 μM compound, mean±SD. (In general: Microsomes from liver hold many membrane-bound enzymes, among them those of drug oxidation.)
Method: (§1) Each compound (final concentration: 5 μM) was incubated in the presence of rat or human liver microsomes (final concentration: 1 mg protein/mL) and of a NADPH‐regenerating system (final concentrations: 2 mM NADP^+, 10 mM glucose‐6‐phosphate, 0.4 U mL^−1 glucose‐6‐phosphate dehydrogenase, 5 mM MgCl2) in a 10 mM Phosphate Buffered Saline (PBS) solution, pH 7.4, at 37 °C. Compound was added after a 10 min pre‐incubation at 37 °C and. at stated time points, depending on compound kinetics, sample aliquots were withdrawn, metabolic reaction was quenched by acetonitrile addition (1 : 2), and after a centrifugation step (9000 g, 10 min, 4 °C) the supernatant was analyzed by HPLC‐UV‐VIS.
(§2) Apparent half‐lives (t1/2 in min) for the metabolic clearance of compounds were calculated from the pseudo first‐order rate constants (k) obtained by linear regression of the log chromatographic peak area versus time plots and are reported as means of three experiments±standard deviation. Intrinsic clearance (CLi) values of the compounds were calculated using the following equation: CLi (μL×min^−1×mg protein^−1)=k×V where V (μL×mg protein^−1)=incubation volume/mg protein added.
(§3) Pooled rat and human liver microsomes (20 mg/mL) were supplied by BD Biosciences (BD Biosciences, Woburn, MA, USA). Acetonitrile and methanol were HPLC grade and were supplied by Sigma‐Aldrich (Sigma‐Aldrich srl, Milan, Italy). Water was freshly bidistilled before use. All other reagents were purchased in the highest purity available.
(§4) PeakSimple 2.83 software was employed for data acquisition and HPLC peak integration. HPLC columns were a RP‐C18 Supelco Discovery (Supelco, Bellefonte, PA, USA), 5 μm, 150×4.6 mm i.d. for all compounds except 13, and a Phenomenex Gemini, 5 μm, 150×4.6 mm i.d. for compound 13 (Phenomenex). Elution conditions were optimized for each compound at a flow rate of 1 mL min^−1 employing mobile phases consisting of water and acetonitrile at different percentages, while UV detection was set at λ = 254 nm. For compound 13, the mobile phase consisted of a 10 mM ammonium acetate buffer pH 7.0 and methanol and the UV detection was set at λ = 281 nm.
The target in another data set is human MT1 receptors (Homo sapiens, UniProt P48039). As to the kind of experiment: Radioligand binding, 2-[125I]iodomelatonin competition at MT1. The settings on record: cloned human MT1 in CHO cells; from IC50 by Cheng-Prusoff; mean±SD of three determinations; read-out: MT1 K i.
Chain of human MT1 receptors (P48039 whole entry): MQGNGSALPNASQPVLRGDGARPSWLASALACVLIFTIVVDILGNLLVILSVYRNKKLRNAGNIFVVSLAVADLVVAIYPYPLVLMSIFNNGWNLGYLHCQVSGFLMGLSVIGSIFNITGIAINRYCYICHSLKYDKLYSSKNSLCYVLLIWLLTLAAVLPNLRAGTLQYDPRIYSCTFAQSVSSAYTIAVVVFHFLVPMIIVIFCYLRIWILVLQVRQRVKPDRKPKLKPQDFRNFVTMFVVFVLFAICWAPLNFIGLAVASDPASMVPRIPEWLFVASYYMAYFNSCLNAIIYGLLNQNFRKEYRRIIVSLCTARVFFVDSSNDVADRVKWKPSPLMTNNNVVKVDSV
A short description of data set [2]: Experimental lipophilicity, shake-flask n-octanol/water. The settings on record: n-octanol/water (MOPS buffer); n-octanol/50 mM MOPS buffer pH 7.4, 25±1 °C; mean±SD of three; read-out: Log D oct,7.4. It counts as physicochemical.
Method: Chosen buffer was 50 mM zwitterionic MOPS (3‐morpholinopropanesulfonic acid), pH 7.4 to avoid ionic couple partitioning, with ionic strength adjusted to 0.15 M by KCl addition. Compounds, after partitioning overnight, and dilution of both phases with methanol, were dosed in the HPLC‐UV system, as detailed below. Reported log D oct,7.4 values are the mean of three measurements±standard deviation.
HPLC columns were a RP‐C18 Supelco Discovery (Supelco, Bellefonte, PA, USA), 5 μm, 150×4.6 mm i.d. for all compounds except 13, and a Phenomenex Gemini, 5 μm, 150×4.6 mm i.d. for compound 13 (Phenomenex). Elution conditions were optimized for each compound at a flow rate of 1 mL min^−1 employing mobile phases consisting of water and acetonitrile at different percentages, while UV detection was set at λ = 254 nm. For compound 13, the mobile phase consisted of a 10 mM ammonium acetate buffer pH 7.0 and methanol and the UV detection was set at λ = 281 nm.
Data set [3] can be described thus: Metabolic stability in human liver microsomes. It counts as in vitro ADME. Particulars: human liver microsomes 1 mg protein/mL, 5 μM compound, mean±SD.
Method: as §1, §2, §3, §4
Data set [4] can be described thus: Thermodynamic solubility, shake flask method. It counts as physicochemical. The settings on record: thermodynamic from solid, room temperature overnight, mean±SD, triplicate.
Method: Thermodynamic solubility values were measured in two different buffers (pH 1.0; pH 7.4) by the shake flask method.[65] 1 mg of each compound was placed in 1 mL of appropriate buffer and shaken at room temperature overnight. The resulting suspension was centrifuged (10 min, 10000 g, 20 °C) and the supernatant analyzed by HPLC‐UV. Solubility values were interpolated from calibration curves prepared from concentrated DMSO stock solutions of each compound. Reported solubility values are the mean of three measurements±standard deviation.
It consisted of a LC‐10ADvp solvent delivery module, a 20 μL Rheodyne sample injector (Rheodyne LLC, Rohnert Park, CA, USA) and a SPD‐10Avp UV‐VIS detector. PeakSimple 2.83 software was employed for data acquisition and HPLC peak integration. […] Elution conditions were optimized for each compound at a flow rate of 1 mL min^−1 employing mobile phases consisting of water and acetonitrile at different percentages, while UV detection was set at λ = 254 nm.

In brackets after ≈: the same amount, converted by molar mass. Like-named read-outs stand apart in the source and are kept apart here. Bounds are passed on as bounds.

Method for human MT1 receptors: (§5) The in vitro pharmacology experiments were conducted at Cerep (Celle‐Lévescault, France) following radioligand binding and cellular functional assays developed elsewhere.[60, 61, 62]
(§6) After incubation, the % of radioligand binding inhibition was determined via a scintillation counting method. The radioligand binding experiments were performed in triplicate. IC50 values were determined by nonlinear regression analysis of the competition curves using Hill equation curve fitting. The pK i values were calculated from the IC50 values in accordance with the Cheng‐Prusoff equation.[28]
Method for human MT2 receptors: as §5, §6

As to `CC(=O)NCCN(c1ccc(F)cc1)c1cccc(C(F)F)c1` [Compound 10, N ‐(2‐{[3‐(Difluoromethyl)phenyl](4‐fluorophenyl)amino}ethyl)acetamide], the melting point was in the range of 76 to 77 °C. Moreover, the Ki at human MT2 receptors is 35 ± 0.35 nM. In addition, in data set [1] (37 °C), the “CLi Rat LM (intrinsic clearance)” value was found to be 58.0±8.2 μL min^−1 mg prot^−1. For the same compound, in data set [1] (NADPH-regenerating system, pH 7.4, 37 °C, read-out: t 1/2 Rat LM), the half-life at 5 μM amounted to 12.2 ± 1.5 min. Also, the Ki at human MT1 receptors is > 100 nM. The logD in data set [2] was 3.45 ± 0.02. Also, the “CLi Human LM (intrinsic clearance)” value in data set [3] (37 °C) is 12.8±1.3 μL min^−1 mg prot^−1. In data set [3] (NADPH-regenerating system, pH 7.4, 37 °C, read-out: t 1/2 Human LM), the half-life at 5 μM turned out to be 55.4 ± 6.8 min. Besides, the solubility in data set [4] (buffer pH 1.0, simulated gastric fluid, pH 1.0 buffer, read-out: Solubility pH 1.0) was 54.9 ± 1.1 µg/mL (≈ 170 µM). Further, the solubility in data set [4] (buffer pH 7.4, aqueous buffer, pH 7.4 buffer, read-out: Solubility pH 7.4) is 40.6 ± 0.1 µg/mL (≈ 126 µM).

Source of the values: article PMC8518537, “N‐(Anilinoethyl)amide Melatonergic Ligands with Improved Water Solubility and Metabolic Stability” (Chemmedchem, 2021).
